Article PMC7534897 (Bioorganic & Medicinal Chemistry Letters, 2020)
≈ marks a conversion by molar mass, not a printed value. Read-outs that look alike come from different tables or passages of the source.

Tests used:
EV-71A = conditions: cited from earlier work
EV-A71 = conditions: read-out: EC50, EV-A71; cited from earlier work
[1] = system: Enterovirus 71 (Tainin/4643/98 strain); assay: Inhibition of EV-A71 replication in Vero 76 cells; format: cell-based, Enterovirus A71; conditions: for EC50: Enterovirus A
A1 adenosine receptor = conditions: cited from earlier work
[2] = system: coxsackie virus B3, enterovirus 68 and poliovirus 1; assay: organism not typed; format: cell-based; conditions: read-out: EC50 values, range over three viruses
A3 adenosine receptor = conditions: read-out: Ki, A3 adenosine receptor; binds as an agonist; cited from earlier work
[3] = system: Enterovirus 68 (US/KY/14–18953 strain); assay: Inhibition of enterovirus 68 in RD cells; format: cell-based; conditions: Enterovirus D, read-out: EC50/90 values against enterovirus 68, range

NC(=O)c1ncn([C@@H]2O[C@H](CO)[C@@H](O)[C@H]2O)n1 [Compound 5, ribavirin]
IC50, EV-71A viral yield in infected cells (EV-71A): 65 µg/mL (≈ 266 µM)
IC50 (EV-71A; read-out: IC50, EV-71A viral yield in infected cells): 266 µM

OC[C@H]1O[C@@H](n2cnc3c(NCc4ccccc4)ncnc32)[C@H](O)[C@@H]1O [Compound 6, N ^6-benzyl-adenosine]
EC50 (EV-A71): 5 µM

CCOC(=O)c1ccc(OCCC2CCN(c3ccc(C)nn3)CC2)cc1 [Compound 8, Pirodavir, reference compound]
EC50 ([1]; Vero 76, read-out: EC50 values of pirodavir, range (neutral red)): 0.056 to 0.22 µg/mL
EC50 ([1]; Vero 76, read-out: EC50 values of pirodavir, range (visual)): 0.036 to 0.32 µg/mL

NC(=O)c1ncn([C@H]2[C@H](O)[C@H](O)[C@]3(CO)C[C@H]23)n1 [Compound 9]
Activity against EV-A71 in words ([1]; at 50 µM, higher concentrations not tested): inactive

OC[C@H]1O[C@@H](n2cnc3c(NC(C4CC4)C4CC4)ncnc32)[C@H](O)[C@@H]1O [Compound 10]
Activity against EV-A71 in words [1]: inactive

OC[C@H]1O[C@@H](n2cnc3c(NC(C4CCC4)C4CCC4)ncnc32)[C@H](O)[C@@H]1O [Compound 11]
Activity against EV-A71 in words [1]: inactive
Ki (A1 adenosine receptor; read-out: Ki, A1 receptor): < 0.01 µM

OC[C@H]1O[C@@H](n2cnc3c(NC(C4CCC4)C4CCC4)nc(Cl)nc32)[C@H](O)[C@@H]1O [Compound 12]
Ki (A1 adenosine receptor; read-out: Ki, A1 receptor): < 0.01 µM

OC[C@@]12C[C@@H]1[C@@H](n1cnc3c(NC(C4CC4)C4CC4)nc(Cl)nc31)[C@H](O)[C@@H]2O [Compound 16]
Activity against EV-A71 in words [1]: Intermediate potency

CC(C)[C@@H](Nc1nc(Cl)nc2c1ncn2[C@H]1[C@H](O)[C@H](O)[C@]2(CO)C[C@H]12)C1CC1 [Compound 17]
EC50 [2]: 16 to 32 µM
Ki (A3 adenosine receptor): 1.24 µM
Ki (A1 adenosine receptor; read-out: Ki, A1 adenosine receptor, binds as an agonist): 0.103 µM

CSc1nc(N[C@H](C(C)C)C2CC2)c2ncn([C@H]3[C@H](O)[C@H](O)[C@]4(CO)C[C@H]34)c2n1 [Compound 20, (1R,2R,3S,4R,5S)-4-(6-((1-Cyclopropyl-2-methylpropyl)amino)-2-(methylthio)-9H-purin-9-yl)-1-(hydroxymethyl)bicyclo[3.1.0]hexane-2,3-diol]
EC50 ([1]; Vero 76, read-out: Visual EC50): > 100 µM

CC(C)[C@H](Nc1nc(Cl)nc2c1ncn2[C@H]1[C@H](O)[C@H](O)[C@]2(CO)C[C@H]12)C1CC1 [Compound 21]
Activity against EV-A71 in words [1]: Intermediate potency

CC[C@@H](Nc1nc(SC)nc2c1ccn2[C@H]1[C@H](O)[C@H](O)[C@]2(CO)C[C@H]12)C1CC1 [Compound 26]
EC50 ([1]; Vero 76, read-out: Visual EC50): 16 µM

CC[C@H](Nc1nc(Cl)nc2c1ncn2[C@H]1[C@H](O)[C@H](O)[C@]2(CO)C[C@H]12)C1CC1 [Compound 27]
EC50 ([1]; Vero 76, read-out: Visual EC50): 16 µM

OC[C@@]12C[C@@H]1[C@@H](n1cnc3c(NC(C4CCC4)C4CCC4)nc(Cl)nc31)[C@H](O)[C@@H]2O [Compound 30]
Activity against EV-A71 in words [1]: prevented inhibition

O[C@@H]1[C@H](O)[C@@H]2C[C@@H]2[C@H]1n1cnc2c(NC(C3CC3)C3CC3)nc(Cl)nc21 [Compound 31]
SI (selectivity index) at EV-A71 ([1]; visual and neutral red methods): ≥ 10
EC50 [3]: 8 to 16 µM

O[C@@H]1[C@H](O)[C@@H]2C[C@@H]2[C@H]1n1cnc2c(NC(C3CCC3)C3CCC3)nc(Cl)nc21 [Compound 42]
EC50 ([1]; Vero 76, read-out: Visual EC50): > 16 µM

CCOC(=O)[C@@]12C[C@@H]1[C@@H](n1cnc3c(NC(C4CC4)C4CC4)nc(Cl)nc31)[C@H](O)[C@@H]2O [Compound 44]
Activity against EV-A71 in words [1]: inactive

CC(C)[C@@H](Nc1nc(Cl)nc2c1ncn2[C@H]1[C@H](O)[C@H](O)[C@]2(CF)C[C@H]12)C1CC1 [Compound 48, (1S,2R,3S,4R,5S)-4-(2-Chloro-6-((1-cyclopropyl-2-methylpropyl)amino)-9H-purin-9-yl)-1-(fluoromethyl)bicyclo[3.1.0]hexane-2,3-diol]
Activity against EV-A71 in words [1]: intermediate potency
EC50 ([1]; Vero 76, read-out: Visual EC50): 3.6 µM
EC50 [3]: 8 to 16 µM

CC(C)[C@@H](Nc1nc(Cl)nc2c1ncn2[C@H]1[C@H](O)[C@H](O)[C@]2(CCl)C[C@H]12)C1CC1 [Compound 49, (1S,2R,3S,4R,5S)-4-(2-Chloro-6-((1-cyclopropyl-2-methylpropyl)amino)-9H-purin-9-yl)-1-(chloromethyl)bicyclo[3.1.0]hexane-2,3-diol]
Activity against EV-A71 in words [1]: intermediate potency

CSC[C@@]12C[C@@H]1[C@@H](n1cnc3c(N[C@H](C(C)C)C4CC4)nc(Cl)nc31)[C@H](O)[C@@H]2O [Compound 50, (1S,2R,3S,4R,5S)-4-(2-Chloro-6-((1-cyclopropyl-2-methylpropyl)amino)-9H-purin-9-yl)-1-((methylthio)methyl)bicyclo[3.1.0]hexane-2,3-diol]
Activity against EV-A71 in words [1]: reduced inhibition

CC(C)[C@@H](Nc1nc(Cl)nc2c1ncn2[C@H]1[C@H](O)[C@H](O)[C@]2(CN=[N+]=[N-])C[C@H]12)C1CC1 [Compound 51, (1R,2R,3S,4R,5S)-1-(Azidomethyl)-4-(2-chloro-6-((1-cyclopropyl-2-methylpropyl)amino)-9H-purin-9-yl)bicyclo[3.1.0]hexane-2,3-diol]
Activity against EV-A71 in words [1]: intermediate potency

CC(C)[C@@H](Nc1nc(Cl)nc2c1ncn2[C@H]1[C@H](O)[C@H](O)[C@]2(CN)C[C@H]12)C1CC1 [Compound 52, (1R,2R,3S,4R,5S)-1-(Aminomethyl)-4-(2-chloro-6-((1-cyclopropyl-2-methylpropyl)amino)-9H-purin-9-yl)bicyclo[3.1.0]hexane-2,3-diol]
Activity against EV-A71 in words [1]: reduced inhibition
